Earlier results on two compounds are cited in paper PMC5963526 (Biochimica et biophysica acta, 2018).

In the case of `CC(C)(C)[N+]([O-])=Cc1ccccc1` [PBN, a-phenyl-N-tert-butylnitrone], the “protection against LIRD” value in the data set with rats was “complete protection”.

Regarding `CC1=C(/C=C/C(C)=C/C=C/C(C)=C\C(=O)O)C(C)(C)CCC1` [13-cis-retinoic acid], the “protection of the retina from light damage” value in the data set with retina was “protects the retina from light damage”.
